Experimental data: PubChem BioAssay (NCI)
Values joined by “and” are separate entries in the source; they are usually repeats but may differ in a detail not shown here. Identical values can stand only once.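 How tested: cells in 96-well plates exposed to compound for 48 hours at five concentrations. Here, GI50 denotes the concentration required for 50% inhibition of growth. TGI denotes the concentration required for complete inhibition of growth.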

Legend:
Test in all cases: NCI anticancer screen, dose series, 48 h
MDA-MB-435 = test system: MDA-MB-435
U251 CNS = test system: U251 CNS
HOP-92 NSCLC = test system: HOP-92 NSCLC
SN12C renal = test system: SN12C renal
OVCAR-8 ovarian = test system: OVCAR-8 ovarian
HS 578T breast = test system: HS 578T breast
A498 renal = test system: A498 renal
HCT-15 colon = test system: HCT-15 colon
MDA-MB-231 breast = test system: MDA-MB-231 breast
UACC-257 melanoma = test system: UACC-257 melanoma

| Structure (SMILES) | GI50 (MDA-MB-435) [µM] | TGI (MDA-MB-435) [µM] | GI50 (U251 CNS) [µM] | TGI (U251 CNS) [µM] | GI50 (HOP-92 NSCLC) [µM] | TGI (HOP-92 NSCLC) | GI50 (SN12C renal) [µM] | TGI (SN12C renal) | GI50 (OVCAR-8 ovarian) [µM] | GI50 (HS 578T breast) [µM] | GI50 (A498 renal) [µM] | TGI (A498 renal) | GI50 (HCT-15 colon) [µM] | TGI (HCT-15 colon) | GI50 (MDA-MB-231 breast) [µM] | TGI (MDA-MB-231 breast) | GI50 (UACC-257 melanoma) [µM] | TGI (UACC-257 melanoma) | TGI (OVCAR-8 ovarian) [µM] | TGI (HS 578T breast) [µM] |
| --- | --- | --- | --- | --- | --- | --- | --- | --- | --- | --- | --- | --- | --- | --- | --- | --- | --- | --- | --- | --- |
| Clc1ccc(N/N=C(\c2ccccc2)c2ccccn2)nc1 | 0.42 | > 55.9 | 0.344 | > 68 | 0.445 | > 66.2 µM and 10.2 µM | 0.251 | > 49.2 µM and 33.1 µM | 0.276 | 0.781 | 0.133 | 16.4 µM and > 100 µM | 0.0505 | > 38.3 µM and 14.1 µM | 0.237 | > 65.8 µM and 48.4 µM | 0.154 | 12 µM and 20.7 µM |  |  |
| CC(C)c1ccc(/C=N/N=C(N)N)cc1 | 1.63 | 4.72 | 4.63 | 17 | 1.35 | 7.27 µM | 6.35 | 20.4 µM | 10.8 | 11.5 | 11.3 | 23.8 µM | 4.19 | 16.8 µM | 7.39 | 21.5 µM | 8.74 | 24.1 µM | 28.3 | 36.5 |
| O=C1Nc2ccc(CN3CCOC3=O)cc2/C1=C/c1cc(CN2CCOCC2)c[nH]1 | 18.7 | > 100 | > 75.6 | > 100 | 32 | > 92.3 µM | 45.4 | > 100 µM | 33.7 | > 69.8 | > 45.2 | > 100 µM | 29.4 | > 100 µM | 78.8 | > 100 µM | 52 | > 100 µM | > 100 | > 100 |
| CN(N=O)C(=O)Nc1ccc(C(=O)O)cc1 |  | > 100 |  | > 100 |  | > 100 µM |  | > 100 µM |  |  |  | > 100 µM |  | > 100 µM |  | > 100 µM |  | > 100 µM | > 100 | > 100 |
| CC(=O)[O][Hg][CH2]C1(C)COC(C)([CH2][Hg][O]C(C)=O)CO1 (stereo unspecified) | 2.72 | 7.18 | 1.44 | 2.79 | 5.62 | 19.1 µM | 0.887 | 4.49 µM | 6.03 | 2.61 | 19.4 | 34.8 µM | 0.432 | 0.9 µM | 12.5 | 29.2 µM | 4.51 | 10.5 µM | 52.1 | 16 |
| COc1ccccc1Nc1nc2ccccc2c2occc12 | 19.1 | > 50 | 14.5 | > 50 | 24.1 | > 50 µM | 10.7 | 33.8 µM | 17.6 | 22.1 | 21.2 | 43.1 µM | 10.5 | 27 µM | 10.9 | 29.1 µM | 14.3 | 35.7 µM | > 50 | 49 |
| CC(=O)OC1CC2(O)C(CCC3(C)C(c4ccc(=O)oc4)CCC32O)C2(C)CCC(OC3OC(CO)C(O)C(O)C3O)C=C12 (stereo unspecified) | 0.0342 | 0.139 | 0.0348 | 0.136 | 0.0494 | 0.318 µM |  |  | 0.0294 | 0.0103 | 0.0339 | 0.287 µM | 0.0343 | 0.134 µM | 0.0684 | 0.396 µM | 0.0383 | 0.206 µM | 0.126 | 0.701 |
